One data set is described as follows: Acute toxicity (mouse). As to conditions: in vivo, ip. The text has this:
(§1) Data of the anti-ulcerative activity (Shay rat) and the acute toxicity (mouse) obtained with respect to several typical instances of compounds included in the scope of this invention are shown in Table 1.

In the next data set the test system is Ulcer (Shay rat). Description: Anti-ulcerative activity (Shay rat). Format: in vivo. As to conditions: ip, read-out: % Inhibition of Ulcer Index; for inhibition in vivo at 10 mg/kg: 10 mg/Kg i.p.; for inhibition in vivo at 20 mg/kg: 20 mg/Kg i.p.
Source text: as §1

With `Nc1nc(N)nc(-c2cc(Cl)ccc2Cl)n1` [Example 1], the 50% lethal dose (LD50) in the data set “Acute toxicity (mouse)” was roughly 1600 mg/kg. Moreover, in the data set on Ulcer (Shay rat), the inhibition in vivo at 10 mg/kg is 49% and the inhibition in vivo at 20 mg/kg was determined as 100%.
In the case of `Nc1nc(N)nc(-c2cc(Cl)ccc2F)n1` [Example 2], in the data set with Ulcer (Shay rat), the inhibition in vivo at 20 mg/kg was 89%.
Compound `Nc1nc(N)nc(-c2cc(Cl)ccc2Br)n1` [Example 3] came in with an LD50 in the data set “Acute toxicity (mouse)” of roughly 1000 mg/kg. Also, in the data set on Ulcer (Shay rat), the inhibition in vivo at 10 mg/kg was determined as 33% and the inhibition in vivo at 20 mg/kg stood at 80%.
As for `Nc1nc(N)nc(-c2cc(F)ccc2Br)n1` [Example 4], in “Acute toxicity (mouse)”, the LD50 was roughly 500 mg/kg. Moreover, the inhibition in vivo at 20 mg/kg with Ulcer (Shay rat) stood at 78%.
In the same order, the values of `Nc1nc(N)nc(-c2cc(Br)ccc2Br)n1` [Example 5] are roughly 850 mg/kg and 100%.
Consider `Nc1nc(N)nc(-c2cc(Br)ccc2Cl)n1` [Example 6], for which the LD50 in “Acute toxicity (mouse)” is greater than 1000 mg/kg. Moreover, in the data set on Ulcer (Shay rat), the inhibition in vivo at 10 mg/kg was determined as 35% and the inhibition in vivo at 20 mg/kg was 86%.
The compound `Nc1nc(N)nc(-c2ccc(Cl)cc2Cl)n1` [Example 7] had an LD50 in “Acute toxicity (mouse)” of roughly 300 mg/kg. In the data set on Ulcer (Shay rat), the inhibition in vivo at 10 mg/kg is 77% and the inhibition in vivo at 20 mg/kg is 100%.
Consider `Nc1nc(N)nc(-c2ccc(Cl)cc2Br)n1` [Example 8], for which, in the data set on Ulcer (Shay rat), the inhibition in vivo at 10 mg/kg came to 76% and the inhibition in vivo at 20 mg/kg was found to be 96%.
For the compound `Nc1nc(N)nc(-c2cccc(Cl)c2Cl)n1` [Example 10], in the data set with Ulcer (Shay rat), the inhibition in vivo at 20 mg/kg came to 76%.
In the case of `Nc1nc(N)nc(-c2c(Cl)cccc2Cl)n1` [Example 11], the inhibition in vivo at 20 mg/kg in the data set with Ulcer (Shay rat) was 54%.
Still for that read-out and setting: with `Nc1nc(N)nc(-c2cc(Cl)cc(Cl)c2)n1` [Example 12] the figure was 80%.

For the origin of these results see patent US3966728A, “Benzoguanamine derivatives” (Nippon Shinyaku Co., Ltd., priority 1974, dated 1976).
